Drawing on patent EP2951180B1, “2,6,7,8 SUBSTITUTED PURINES AS HDM2 INHIBITORS” (Merck Sharp & Dohme Corp., priority 2013, dated 2014), this text covers IC50 for 23 compounds.

In the experiment the target is T1, HDM2 (Homo sapiens, UniProt Q00987).
T1 construct: Thioredoxin (N); made in house; host or cells: E. coli strain BL21(DE3)Rosetta
T1 sequence (Q00987 17-125): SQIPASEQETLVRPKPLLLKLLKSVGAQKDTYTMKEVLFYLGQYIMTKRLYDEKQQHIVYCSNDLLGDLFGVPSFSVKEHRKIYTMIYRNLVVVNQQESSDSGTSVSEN
The experiment in a line: HDM2 FRET assay (inhibition of binding of FITC labeled p53-pocket peptide to HDM2). As to conditions: 0.5 nM HDM2 (residues 17 to 125), 3nM peptide, two hour incubation at room temperature; read-out: FRET IC50. The method, boiled down: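 Displacement of FITC-p53 peptide (3 nM) from His-tagged HDM2 (0.5 nM) is measured by Tb-to-fluorescein FRET in PBS, 0.01% BSA, 0.01% Tween-20. IC50 values derive from 10-point curves.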
As a reminder, the IC50 is the concentration that inhibits the measured activity by half. Consider `CC[C@H](Nc1nc2nc(-c3n[nH]c(=O)o3)nc(-c3cccc(Cl)c3)c2n1C[C@H]1CC[C@H](C)CC1)c1cccc(F)c1` [Example 16.76, 5-{6-(3-chlorophenyl)-8-{[(1S)-1-(3-fluorophenyl)propyl]amino}-7-[(trans-4-methylcyclohexyl)methyl]-7H-purin-2-yl}-1,3,4-oxadiazol-2(3H)-one], for which the IC50 was found to be 13.2 nM. The result for `C[C@H]1CC[C@H](Cn2c(N3CCOCC34CC4)nc3nc(-c4noc(=O)[nH]4)nc(-c4cccc(Cl)c4)c32)CC1` [Example 16.79, 3-[6-(3-chlorophenyl)-7-[(trans-4-methylcyclohexyl)methyl]-8-(7-oxa-4-azaspiro[2.5]oct-4-yl)-7H-purin-2-yl]-1,2,4-oxadiazol-5(4H)-one] reads 21.6 nM; that for `C[C@H]1CC[C@H](Cn2c(N3CCOCC34CCC4)nc3nc(-c4noc(=O)[nH]4)nc(-c4cccc(Cl)c4)c32)CC1` [Example 16.80, 3-[6-(3-chlorophenyl)-7-[(trans-4-methylcyclohexyl)methyl]-8-(8-oxa-5-azaspiro[3.5]non-5-yl)-7H-purin-2-yl]-1,2,4-oxadiazol-5(4H)-one], 8.7 nM. Under `C[C@H]1CC[C@H](Cn2c(N3CCO[C@H]4CCC[C@@H]43)nc3nc(-c4noc(=O)[nH]4)nc(-c4cccc(Cl)c4)c32)CC1` [Example 16.81, 3-{6-(3-chlorophenyl)-8-[(4aS,7aS)-hexahydrocyclopenta [b][1,4]oxazin-4(4aH)-yl]-7-[(trans-4-methylcyclohexyl)methyl]-7H-purin-2-yl}-1,2,4-oxadiazol-5(4H)-one] stands 105 nM; under `C[C@H]1CC[C@H](Cn2c(N3CCO[C@@H]4CCC[C@H]43)nc3nc(-c4noc(=O)[nH]4)nc(-c4cccc(Cl)c4)c32)CC1` [Example 16.82, 3-{6-(3-chlorophenyl)-8-[(4aR,7aR)-hexahydrocyclopenta [b][1,4]oxazin-4(4aH)-yl]-7-[(trans-4-methylcyclohexyl)methyl]-7H-purin-2-yl}-1,2,4-oxadiazol-5(4H)-one], 1.1 nM. The result for `C[C@H]1CC[C@H](Cn2c(N3CCO[C@H]4CCC[C@@H]43)nc3nc(-c4n[nH]c(=O)o4)nc(-c4cccc(Cl)c4)c32)CC1` [Example 16.83, 5-{6-(3-chlorophenyl)-8-[(4aS,7aS)-hexahydrocyclopenta [b][1,4]oxazin-4(4aH)-yl]-7-[(trans-4-methylcyclohexyl)methyl]-7H-purin-2-yl}-1,3,4-oxadiazol-2(3H)-one] reads 186 nM; that for `C[C@H]1CC[C@H](Cn2c(N3CCO[C@@H]4CCC[C@H]43)nc3nc(-c4n[nH]c(=O)o4)nc(-c4cccc(Cl)c4)c32)CC1` [Example 16.84, 5-{6-(3-chlorophenyl)-8-[(4aR,7aR)-hexahydrocyclopenta [b][1,4]oxazin-4(4aH)-yl]-7-[(trans-4-methylcyclohexyl)methyl]-7H-purin-2-yl}-1,3,4-oxadiazol-2(3H)-one], 2.47 nM; that for `COC[C@H](Nc1nc2nc(-c3noc(=O)[nH]3)nc(-c3cccc(Cl)c3)c2n1C[C@H]1CC[C@H](C)CC1)c1ccccc1` [Example 16.85, 3-{6-(3-chlorophenyl)-8-{[(1R)-2-methoxy-1-phenylethyl]amino}-7-[(trans-4-methylcyclohexyl)methyl]-7H-purin-2-yl}-1,2,4-oxadiazol-5(4H)-one], 2.87 nM. `C[C@H]1CC[C@H](Cn2c(N3CCO[C@H]4CCC[C@@H]43)nc3nc(-c4noc(=O)[nH]4)nc(-c4cncc(Cl)c4)c32)CC1` [Example 16.86, 3-{6-(5-chloropyridin-3-yl)-8-[(4aS,7aS)-hexahydrocyclopenta [b][1,4]oxazin-4(4aH)-yl]-7-[(trans-4-methylcyclohexyl)methyl]-7H-purin-2-yl}-1,2,4-oxadiazol-5(4H)-one]: the IC50 turned out to be 344 nM. The result for `C[C@H]1CC[C@H](Cn2c(N3CCO[C@@H]4CCC[C@H]43)nc3nc(-c4noc(=O)[nH]4)nc(-c4cncc(Cl)c4)c32)CC1` [Example 16.87, 3-{6-(5-chloropyridin-3-yl)-8-[(4aR,7aR)-hexahydrocyclopenta [b][1,4]oxazin-4(4aH)-yl]-7-[(trans-4-methylcyclohexyl)met52hyl]-7H-purin-2-yl}-1,2,4-oxadiazol-5(4H)-one] reads 1.56 nM; that for `C[C@H]1CC[C@H](Cn2c(N3CCOCC34CC4)nc3nc(-c4n[nH]c(=O)o4)nc(-c4cccc(Cl)c4)c32)CC1` [Example 16.88, 5-[6-(3-chlorophenyl)-7-[(trans-4-methylcyclohexyl)methyl]-8-(7-oxa-4-azaspiro[2.5]oct-4-yl)-7H-purin-2-yl]-1,3,4-oxadiazol-2(3H)-one], 39.1 nM. For `C[C@H]1CC[C@H](Cn2c(N3CCOCC34CCC4)nc3nc(-c4n[nH]c(=O)o4)nc(-c4cccc(Cl)c4)c32)CC1` [Example 16.89, 5-[6-(3-chlorophenyl)-7-[(trans-4-methylcyclohexyl)methyl]-8-(8-oxa-5-azaspiro[3.5]non-5-yl)-7H-purin-2-yl]-1,3,4-oxadiazol-2(3H)-one], the IC50 worked out at 25 nM. Under `C[C@H]1CC[C@H](Cn2c(N3CCO[C@@H]4CCC[C@H]43)nc3nc(-c4n[nH]c(=O)o4)nc(-c4cncc(Cl)c4)c32)CC1` [Example 16.90, 5-{6-(5-chloropyridin-3-yl)-8-[(4aR,7aR)-hexahydrocyclopenta [b][1,4]oxazin-4(4aH)-yl]-7-[(trans-4-methylcyclohexyl)methyl]-7H-purin-2-yl}-1,3,4-oxadiazol-2(3H)-one] stands 2.28 nM; under `C[C@H]1CC[C@H](Cn2c(N3CCO[C@H]4CCC[C@@H]43)nc3nc(-c4n[nH]c(=O)o4)nc(-c4cncc(Cl)c4)c32)CC1` [Example 16.91, 5-{6-(5-chloropyridin-3-yl)-8-[(4aS,7aS)-hexahydrocyclopenta [b][1,4]oxazin-4(4aH)-yl]-7-[(trans-4-methylcyclohexyl)methyl]-7H-purin-2-yl}-1,3,4-oxadiazol-2(3H)-one], 403 nM.

In the case of `C[C@H]1CC[C@H](Cn2c(N3CCOC[C@H]3c3ccccc3F)nc3nc(-c4noc(=O)[nH]4)nc(-c4cncc(Cl)c4)c32)CC1` [Example 16.92, 3-{6-(5-chloropyridin-3-yl)-8-[(3R)-3-(2-fluorophenyl)morpholin-4-yl]-7-[(trans-4-methylcyclohexyl)methyl]-7H-purin-2-yl}-1,2,4-oxadiazol-5(4H)-one], the IC50 was 0.585 nM. The result for `C[C@H]1CC[C@H](Cn2c(N3CCOC[C@H]3c3ccc(F)cc3)nc3nc(-c4noc(=O)[nH]4)nc(-c4cncc(Cl)c4)c32)CC1` [Example 16.93, 3-{6-(5-chloropyridin-3-yl)-8-[(3R)-3-(4-fluorophenyl)morpholin-4-yl]-7-[(trans-4-methylcyclohexyl)methyl]-7H-purin-2-yl}-1,2,4-oxadiazol-5(4H)-one] reads 1.37 nM; that for `C[C@H]1CC[C@H](Cn2c(N3CCOC[C@H]3c3ccc(F)cc3)nc3nc(-c4n[nH]c(=O)o4)nc(-c4cncc(Cl)c4)c32)CC1` [Example 16.94, 5-{6-(5-chloropyridin-3-yl)-8-[(3R)-3-(4-fluorophenyl)morpholin-4-yl]-7-[(trans-4-methylcyclohexyl)methyl]-7H-purin-2-yl}-1,3,4-oxadiazol-2(3H)-one], 1.98 nM; that for `C[C@H]1CC[C@H](Cn2c(N3CCOC[C@H]3c3ccccc3F)nc3nc(-c4n[nH]c(=O)o4)nc(-c4cncc(Cl)c4)c32)CC1` [Example 16.95, 5-{6-(5-chloropyridin-3-yl)-8-[(3R)-3-(2-fluorophenyl)morpholin-4-yl]-7-[(trans-4-methylcyclohexyl)methyl]-7H-purin-2-yl}-1,3,4-oxadiazol-2(3H)-one], 0.494 nM. Under `C[C@H]1CC[C@H](Cn2c(N3CCOC[C@H]3c3ccncc3)nc3nc(-c4noc(=O)[nH]4)nc(-c4cccc(Cl)c4)c32)CC1` [Example 16.96, 3-{6-(3-chlorophenyl)-7-[(trans-4-methylcyclohexyl)methyl]-8-[(3R)-3-pyridin-4-ylmorpholin-4-yl]-7H-purin-2-yl}-1,2,4-oxadiazol-5(4H)-one] stands 3.29 nM; under `C[C@H]1CC[C@H](Cn2c(N3CCOC[C@H]3c3ccncc3)nc3nc(-c4n[nH]c(=O)o4)nc(-c4cccc(Cl)c4)c32)CC1` [Example 16.97, 5-{6-(3-chlorophenyl)-7-[(trans-4-methylcyclohexyl)methyl]-8-[(3R)-3-pyridin-4-ylmorpholin-4-yl]-7H-purin-2-yl}-1,3,4-oxadiazol-2(3H)-one], 3.81 nM. In the case of `C[C@H]1CC[C@H](Cn2c(N3CCOC[C@H]3c3ccccn3)nc3nc(-c4noc(=O)[nH]4)nc(-c4cccc(Cl)c4)c32)CC1` [Example 16.98, 3-{6-(3-chlorophenyl)-7-[(trans-4-methylcyclohexyl)methyl]-8-[(3R)-3-pyridin-2-ylmorpholin-4-yl]-7H-purin-2-yl}-1,2,4-oxadiazol-5(4H)-one], the IC50 was 1.61 nM. With `C[C@H]1CC[C@H](Cn2c(N3CCOC[C@H]3c3ccccn3)nc3nc(-c4n[nH]c(=O)o4)nc(-c4cccc(Cl)c4)c32)CC1` [Example 16.99, 5-{6-(3-chlorophenyl)-7-[(trans-4-methylcyclohexyl)methyl]-8-[(3R)-3-pyridin-2-ylmorpholin-4-yl]-7H-purin-2-yl}-1,3,4-oxadiazol-2(3H)-one], the IC50 was found to be 1.98 nM. With `C[C@@H]1OCCN(c2nc3nc(-c4n[nH]c(=O)o4)nc(-c4cncc(Cl)c4)c3n2C[C@H]2CC[C@H](C)CC2)[C@@H]1C` [Example 16.103, 5-{6-(5-chloropyridin-3-yl)-8-[(2S,3R)-2,3-dimethylmorpholin-4-yl]-7-[(trans-4-methylcyclohexyl)methyl]-7H-purin-2-yl}-1,3,4-oxadiazol-2(3H)-one], the IC50 amounted to 140 nM.
